In patent publication US20060235076A1, “Medicinal composition for treating infection with drug-resistant staphylococcus aureus” (priority 2003, published 2006):

System: MRSA
Experiment: Potentiating effect of galloyl quinic acid derivatives for the antibacterial activity of oxacillin (agar plate dilution method, MIC)
Type: cell-based, Staphylococcus aureus
Procedure: According to the agar plate dilution method defined by Japan Society of Chemotherapy, MIC (Minimum inhibitory concentration) was determined. CAMHA was prepared by adding 50 mg/l of Ca-ion, 25 mg/l of Mg-ion, and 2% of NaCl to Mueller-Hinton II Agar (MHA), and it was used as a medium for use in the measurement of sensitivity. The bacterial liquid was incubated at 37° C. overnight and diluted to 10^6 CFU/ml with saline.
It was confirmed that the known substances shown below were contained in “Tara” and their MICs were determined as described in example 2 with respect to the effects of the combination use with oxacillin

[1] = ATCC 6538, with 12.5 μg/ml of compound
[2] = ATCC 6538, with 25 μg/ml of compound
[3] = ATCC 6538, with 50 μg/ml of compound
[4] = MRSA 1, with 12.5 μg/ml of compound
[5] = MRSA 1, with 25 μg/ml of compound
[6] = MRSA 1, with 50 μg/ml of compound
[7] = MRSA 2, with 12.5 μg/ml of compound
[8] = MRSA 2, with 25 μg/ml of compound
[9] = MRSA 2, with 50 μg/ml of compound
[10] = MRSA 3, with 12.5 μg/ml of compound
[11] = MRSA 3, with 25 μg/ml of compound
[12] = MRSA 3, with 50 μg/ml of compound
[13] = MRSA 4, with 12.5 μg/ml of compound
[14] = MRSA 4, with 25 μg/ml of compound
[15] = MRSA 4, with 50 μg/ml of compound
[16] = MRSA 5, with 12.5 μg/ml of compound
[17] = MRSA 5, with 25 μg/ml of compound
[18] = MRSA 5, with 50 μg/ml of compound
[19] = MRSA 6, with 12.5 μg/ml of compound
[20] = MRSA 6, with 25 μg/ml of compound
[21] = MRSA 6, with 50 μg/ml of compound
[22] = MRSA 7, with 12.5 μg/ml of compound
[23] = MRSA 7, with 25 μg/ml of compound
[24] = MRSA 7, with 50 μg/ml of compound
[25] = MRSA 8, with 12.5 μg/ml of compound
[26] = MRSA 8, with 25 μg/ml of compound
[27] = MRSA 8, with 50 μg/ml of compound
[28] = MRSA 9, with 12.5 μg/ml of compound
[29] = MRSA 9, with 25 μg/ml of compound
[30] = MRSA 9, with 50 μg/ml of compound
[31] = MRSA 10, with 12.5 μg/ml of compound
[32] = MRSA 10, with 25 μg/ml of compound
[33] = MRSA 10, with 50 μg/ml of compound
[34] = MRSA 12, with 12.5 μg/ml of compound
[35] = MRSA 12, with 25 μg/ml of compound
[36] = MRSA 12, with 50 μg/ml of compound
[37] = MRSA 16, with 12.5 μg/ml of compound
[38] = MRSA 16, with 25 μg/ml of compound
[39] = MRSA 16, with 50 μg/ml of compound
[40] = MRSA 17, with 12.5 μg/ml of compound
[41] = MRSA 17, with 25 μg/ml of compound
[42] = MRSA 17, with 50 μg/ml of compound
[43] = MRSA 18, with 12.5 μg/ml of compound
[44] = MRSA 18, with 25 μg/ml of compound
[45] = MRSA 18, with 50 μg/ml of compound
[46] = MRSA 20, with 12.5 μg/ml of compound
[47] = MRSA 20, with 25 μg/ml of compound
[48] = MRSA 20, with 50 μg/ml of compound
[49] = MRSA 21, with 12.5 μg/ml of compound
[50] = MRSA 21, with 25 μg/ml of compound
[51] = MRSA 21, with 50 μg/ml of compound
[52] = MRSA 22, with 12.5 μg/ml of compound
[53] = MRSA 22, with 25 μg/ml of compound
[54] = MRSA 22, with 50 μg/ml of compound
[55] = MRSA COL, with 12.5 μg/ml of compound
[56] = MRSA COL, with 25 μg/ml of compound
[57] = MRSA COL, with 50 μg/ml of compound
[58] = MSSA 1003, with 12.5 μg/ml of compound
[59] = MSSA 1003, with 25 μg/ml of compound
[60] = MSSA 1003, with 50 μg/ml of compound
[61] = MSSA 1010, with 12.5 μg/ml of compound
[62] = MSSA 1010, with 25 μg/ml of compound
[63] = MSSA 1010, with 50 μg/ml of compound
[64] = MSSA 1032, with 12.5 μg/ml of compound
[65] = MSSA 1032, with 25 μg/ml of compound
[66] = MSSA 1032, with 50 μg/ml of compound
[67] = RN4220, with 12.5 μg/ml of compound
[68] = RN4220, with 25 μg/ml of compound
[69] = RN4220, with 50 μg/ml of compound

COC(=O)C1(O)CC(OC(=O)c2cc(O)c(O)c(O)c2)C(OC(=O)c2cc(O)c(O)c(O)c2)C(OC(=O)c2cc(O)c(O)c(O)c2)C1 (stereo not drawn) [compound 2]
Oxacillin MIC [1]: <0.5 mg/L
Oxacillin MIC [2]: <0.5 mg/L
Oxacillin MIC [3]: <0.5 mg/L
Oxacillin MIC [4]: >256 mg/L
Oxacillin MIC [5]: >256 mg/L
Oxacillin MIC [6]: >256 mg/L
Oxacillin MIC [7]: 256 mg/L
Oxacillin MIC [8]: 32 mg/L
Oxacillin MIC [9]: 32 mg/L
Oxacillin MIC [10]: 64 mg/L
Oxacillin MIC [11]: 32 mg/L
Oxacillin MIC [12]: 32 mg/L
Oxacillin MIC [13]: 256 mg/L
Oxacillin MIC [14]: 256 mg/L
Oxacillin MIC [15]: 256 mg/L
Oxacillin MIC [16]: >256 mg/L
Oxacillin MIC [17]: 256 mg/L
Oxacillin MIC [18]: 256 mg/L
Oxacillin MIC [19]: 128 mg/L
Oxacillin MIC [20]: 32 mg/L
Oxacillin MIC [21]: 64 mg/L
Oxacillin MIC [22]: 256 mg/L
Oxacillin MIC [23]: 128 mg/L
Oxacillin MIC [24]: 64 mg/L
Oxacillin MIC [25]: 64 mg/L
Oxacillin MIC [26]: 64 mg/L
Oxacillin MIC [27]: 64 mg/L
Oxacillin MIC [28]: >256 mg/L
Oxacillin MIC [29]: 256 mg/L
Oxacillin MIC [30]: 128 mg/L
Oxacillin MIC [31]: 64 mg/L
Oxacillin MIC [32]: 64 mg/L
Oxacillin MIC [33]: 64 mg/L
Oxacillin MIC [34]: 256 mg/L
Oxacillin MIC [35]: 128 mg/L
Oxacillin MIC [36]: 256 mg/L
Oxacillin MIC [37]: >255 mg/L
Oxacillin MIC [38]: 256 mg/L
Oxacillin MIC [39]: 256 mg/L
Oxacillin MIC [40]: 128 mg/L
Oxacillin MIC [41]: 256 mg/L
Oxacillin MIC [42]: 256 mg/L
Oxacillin MIC [43]: 256 mg/L
Oxacillin MIC [44]: 128 mg/L
Oxacillin MIC [45]: 128 mg/L
Oxacillin MIC [46]: 8 mg/L
Oxacillin MIC [47]: 2 mg/L
Oxacillin MIC [48]: 4 mg/L
Oxacillin MIC [49]: 32 mg/L
Oxacillin MIC [50]: 8 mg/L
Oxacillin MIC [51]: 16 mg/L
Oxacillin MIC [52]: 32 mg/L
Oxacillin MIC [53]: 16 mg/L
Oxacillin MIC [54]: 32 mg/L
Oxacillin MIC [55]: 256 mg/L
Oxacillin MIC [56]: 128 mg/L
Oxacillin MIC [57]: 128 mg/L
Oxacillin MIC [58]: <0.5 mg/L
Oxacillin MIC [59]: <0.5 mg/L
Oxacillin MIC [60]: <0.5 mg/L
Oxacillin MIC [61]: <0.5 mg/L
Oxacillin MIC [62]: <0.5 mg/L
Oxacillin MIC [63]: <0.5 mg/L
Oxacillin MIC [64]: <0.5 mg/L
Oxacillin MIC [65]: <0.5 mg/L
Oxacillin MIC [66]: <0.5 mg/L
Oxacillin MIC [67]: <0.5 mg/L
Oxacillin MIC [68]: <0.5 mg/L
Oxacillin MIC [69]: <0.5 mg/L

O=C(OC1CC(O)(C(=O)O)CC(OC(=O)c2cc(O)c(O)c(O)c2)C1OC(=O)c1cc(O)c(O)c(O)c1)c1cc(O)c(O)c(O)c1 (stereo not drawn) [compound 3]
Oxacillin MIC [1]: <0.5 mg/L
Oxacillin MIC [2]: <0.5 mg/L
Oxacillin MIC [3]: <0.5 mg/L
Oxacillin MIC [4]: 128 mg/L
Oxacillin MIC [5]: 32 mg/L
Oxacillin MIC [6]: 64 mg/L
Oxacillin MIC [7]: 2 mg/L
Oxacillin MIC [8]: <0.5 mg/L
Oxacillin MIC [9]: <0.5 mg/L
Oxacillin MIC [10]: 4 mg/L
Oxacillin MIC [11]: <0.5 mg/L
Oxacillin MIC [12]: 1 mg/L
Oxacillin MIC [13]: 32 mg/L
Oxacillin MIC [14]: 4 mg/L
Oxacillin MIC [15]: 2 mg/L
Oxacillin MIC [16]: 64 mg/L
Oxacillin MIC [17]: 8 mg/L
Oxacillin MIC [18]: 8 mg/L
Oxacillin MIC [19]: 4 mg/L
Oxacillin MIC [20]: 2 mg/L
Oxacillin MIC [21]: 4 mg/L
Oxacillin MIC [22]: 16 mg/L
Oxacillin MIC [23]: 4 mg/L
Oxacillin MIC [24]: 2 mg/L
Oxacillin MIC [25]: 8 mg/L
Oxacillin MIC [26]: 4 mg/L
Oxacillin MIC [27]: 8 mg/L
Oxacillin MIC [28]: 8 mg/L
Oxacillin MIC [29]: 2 mg/L
Oxacillin MIC [30]: 2 mg/L
Oxacillin MIC [31]: 4 mg/L
Oxacillin MIC [32]: 2 mg/L
Oxacillin MIC [33]: 4 mg/L
Oxacillin MIC [34]: 8 mg/L
Oxacillin MIC [35]: 4 mg/L
Oxacillin MIC [36]: 4 mg/L
Oxacillin MIC [37]: 32 mg/L
Oxacillin MIC [38]: 8 mg/L
Oxacillin MIC [39]: 8 mg/L
Oxacillin MIC [40]: 4 mg/L
Oxacillin MIC [41]: 8 mg/L
Oxacillin MIC [42]: 4 mg/L
Oxacillin MIC [43]: 32 mg/L
Oxacillin MIC [44]: 4 mg/L
Oxacillin MIC [45]: 4 mg/L
Oxacillin MIC [46]: <0.5 mg/L
Oxacillin MIC [47]: <0.5 mg/L
Oxacillin MIC [48]: <0.5 mg/L
Oxacillin MIC [49]: 1 mg/L
Oxacillin MIC [50]: <0.5 mg/L
Oxacillin MIC [51]: <0.5 mg/L
Oxacillin MIC [52]: 1 mg/L
Oxacillin MIC [53]: <0.5 mg/L
Oxacillin MIC [54]: 1 mg/L
Oxacillin MIC [55]: 8 mg/L
Oxacillin MIC [56]: 4 mg/L
Oxacillin MIC [57]: 4 mg/L
Oxacillin MIC [58]: <0.5 mg/L
Oxacillin MIC [59]: <0.5 mg/L
Oxacillin MIC [60]: <0.5 mg/L
Oxacillin MIC [61]: <0.5 mg/L
Oxacillin MIC [62]: <0.5 mg/L
Oxacillin MIC [63]: <0.5 mg/L
Oxacillin MIC [64]: <0.5 mg/L
Oxacillin MIC [65]: <0.5 mg/L
Oxacillin MIC [66]: <0.5 mg/L
Oxacillin MIC [67]: <0.5 mg/L
Oxacillin MIC [68]: <0.5 mg/L
Oxacillin MIC [69]: <0.5 mg/L
